Data: publication PMC8982737, “Discovery of S-217622, a Noncovalent Oral SARS-CoV-2 3CL Protease Inhibitor Clinical Candidate for Treating COVID-19” (Journal of Medicinal Chemistry, 2022)

System: SARS-CoV-2
Test: microbe, parasite or virus in culture
Type: cell-based
Conditions: Severe acute respiratory syndrome coronavirus 2, VeroE6/TMPRSS2; read-out: EC50 against all tested SARS-CoV-2 variants

Cn1cnc(Cn2c(=O)[nH]/c(=N\c3cc4cn(C)nc4cc3Cl)n(Cc3cc(F)c(F)cc3F)c2=O)n1 [Compound 3, (6E)-6-[(6-Chloro-2-methyl-2H-indazol-5-yl)imino]-3-[(1-methyl-1H-1,2,4-triazol-3-yl)methyl]-1-(2,4,5-trifluorobenzyl)-1,3,5-triazinane-2,4-dione]
EC50: 290 to 500 nM
